{"source": "patent US8231869B2", "about": "“Recombinant plasmin for opthalmic indications” (priority 2005, dated 2012)", "molecules": {"B1": {"name": "human plasmin (full-length; native human plasminogen SEQ ID NO: 4) (Homo sapiens) (protein)", "chain": "VVGGCVAHPHSWPWQVSLRTRFGMHFCGGTLISPEWVLTAAHCLEKSPRPSSYKVILGAHQEVNLEPHVQEIEVSRLFLEPTRKDIALLKLSSPAVITDKVIPACLPSPNYVVADRTECFITGWGETQGTFGAGLLKEAQLPVIENKVCNRYEFLNGRVQSTELCAGHLAGGTDSCQGDSGGPLVCFEKDKYILQGVTSWGLGCARPNKPGVYVRVSRFVTWIEGVMRNN", "notes": "The C-terminal light chain of plasmin (residues 562-791); The amino-terminal heavy chain of plasmin"}, "B2": {"name": "human mini-plasmin (plasmin fragment, domain composition K5-SP; mini-plasminogen residues Val443-Asn791) (Homo sapiens) (protein)", "chain": "VVGGCVAHPHSWPWQVSLRTRFGMHFCGGTLISPEWVLTAAHCLEKSPRPSSYKVILGAHQEVNLEPHVQEIEVSRLFLEPTRKDIALLKLSSPAVITDKVIPACLPSPNYVVADRTECFITGWGETQGTFGAGLLKEAQLPVIENKVCNRYEFLNGRVQSTELCAGHLAGGTDSCQGDSGGPLVCFEKDKYILQGVTSWGLGCARPNKPGVYVRVSRFVTWIEGVMRNN", "notes": "includes residues Val443-Asn791 and consists of the fifth kringle and the serine protease domain"}, "B3": {"name": "human micro-plasmin (plasmin lacking all five kringles) (Homo sapiens) (protein)", "chain": "VVGGCVAHPHSWPWQVSLRTRFGMHFCGGTLISPEWVLTAAHCLEKSPRPSSYKVILGAHQEVNLEPHVQEIEVSRLFLEPTRKDIALLKLSSPAVITDKVIPACLPSPNYVVADRTECFITGWGETQGTFGAGLLKEAQLPVIENKVCNRYEFLNGRVQSTELCAGHLAGGTDSCQGDSGGPLVCFEKDKYILQGVTSWGLGCARPNKPGVYVRVSRFVTWIEGVMRNN", "notes": "micro-plasmin (lacking all five kringles)"}}, "key": {"[1]": {"biological_target": "human micro-plasmin (plasmin lacking all five kringles) (Homo sapiens, UniProt P00747)", "assay": "Amidolytic activity, steady-state kinetics with substrate S-2251", "type": "biochemical", "conditions": "substrate S-2251, PBS buffer, pH 7.4, 25° C."}, "[2]": {"biological_target": "delta-plasmin (recombinant human plasmin deletion mutant, kringle 1-serine protease domain, deletion of K2-5; from delta-plasminogen SEQ ID NO: 2) (Homo sapiens, UniProt P00747, DELINS146-524/G536N/G539Q/K528E/L551R/N547D/P558L/Q559E/R549E/V538P/V557I)", "sequence (P00747 with tags, fused parts or gaps K528E/G536N/V538P/G539Q/N547D/R549E/L551R/V557I/P558L/Q559E limits assumed)": "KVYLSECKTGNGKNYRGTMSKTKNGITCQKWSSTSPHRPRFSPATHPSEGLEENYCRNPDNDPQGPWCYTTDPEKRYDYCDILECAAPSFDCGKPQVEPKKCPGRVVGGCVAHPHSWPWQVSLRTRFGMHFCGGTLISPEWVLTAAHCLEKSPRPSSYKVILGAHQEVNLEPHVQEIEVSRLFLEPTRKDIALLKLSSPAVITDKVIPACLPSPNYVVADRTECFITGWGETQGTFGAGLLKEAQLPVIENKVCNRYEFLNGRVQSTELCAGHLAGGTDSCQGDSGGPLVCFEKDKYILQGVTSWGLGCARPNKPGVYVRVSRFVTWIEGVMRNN", "assay": "Amidolytic activity, steady-state kinetics with substrate S-2251", "type": "biochemical", "conditions": "substrate S-2251, PBS buffer, pH 7.4, 25° C."}, "[3]": {"biological_target": "human plasmin (full-length; native human plasminogen SEQ ID NO: 4) (Homo sapiens, UniProt P00747)", "sequence (P00747 97-580 partner limits assumed, one chain of several)": "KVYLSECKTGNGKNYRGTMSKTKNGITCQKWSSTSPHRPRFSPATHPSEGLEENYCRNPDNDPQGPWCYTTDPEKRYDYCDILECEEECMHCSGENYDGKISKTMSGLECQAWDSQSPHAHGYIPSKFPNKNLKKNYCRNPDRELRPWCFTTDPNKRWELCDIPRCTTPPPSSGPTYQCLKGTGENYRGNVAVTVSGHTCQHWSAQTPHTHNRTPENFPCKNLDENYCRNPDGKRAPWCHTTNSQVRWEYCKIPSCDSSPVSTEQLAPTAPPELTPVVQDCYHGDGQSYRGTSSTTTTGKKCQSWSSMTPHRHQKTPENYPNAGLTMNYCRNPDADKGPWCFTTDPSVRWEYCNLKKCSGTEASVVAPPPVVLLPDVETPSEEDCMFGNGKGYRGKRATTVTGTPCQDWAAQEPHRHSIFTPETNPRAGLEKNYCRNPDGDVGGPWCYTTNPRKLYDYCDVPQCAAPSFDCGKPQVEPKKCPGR", "assay": "Amidolytic activity, steady-state kinetics with substrate S-2251", "type": "biochemical", "conditions": "substrate S-2251, PBS buffer, pH 7.4, 25° C."}, "[4]": {"biological_target": "kringle 1 (of human plasminogen)", "conditions": "literature value, et al., read-out: kringle 1 affinity for εACA (Kd), cited from earlier work"}, "[5]": {"substrate": "CC(C)C[C@H](NC(=O)[C@H](N)C(C)C)C(=O)N[C@@H](CCCCN)C(=O)Nc1ccc([N+](=O)[O-])cc1", "assay": "purified protein, by the assay type", "type": "biochemical, human", "conditions": "other: substrate S-2251, PBS buffer, pH 7.4, 25° C."}}, "note": "Where two headings read alike, the source gives them in different places. Where a SMILES comes first, the peptide text is derived from it. [ ]: non-standard residue; d: D form. The star is where a group is joined. pNA = O=[N+]([O-])c1ccc(N*)cc1", "data": [{"molecule": "CC(C)C[C@H](NC(=O)[C@H](N)C(C)C)C(=O)N[C@@H](CCCCN)C(=O)Nc1ccc([N+](=O)[O-])cc1", "note": "[S-2251, D-Val-Leu-Lys-p-nitroanilide] (H-[dV]-Leu-Lys-pNA)", "values": [{"measurement": "kcat", "setting": "[1]", "result": "13.2 ± 0.4", "unit": "s⁻¹"}, {"measurement": "kcat", "setting": "[2]; corrected for percent active sites (67%, PNPGB titration)", "result": "12.6 ± 0.75", "unit": "s⁻¹"}, {"measurement": "kcat (for the preparation)", "setting": "[2]; not corrected for percent active sites", "result": 8.5, "unit": "s⁻¹"}, {"measurement": "kcat", "setting": "[3]", "result": "12.7 ± 0.383", "unit": "s⁻¹"}]}, {"molecule": "NCCCCCC(=O)O", "note": "[εACA, ε-aminocaproic acid]", "values": [{"measurement": "Kd", "setting": "[4]; Douglas", "result": 13, "unit": "µM"}, {"measurement": "Kd", "setting": "[4]; Matsuka", "result": 3.2, "unit": "µM"}]}, {"molecule": "B1", "values": [{"measurement": "Km", "setting": "[5]", "result": "193 +/− 7 μM μM"}, {"measurement": "kcat", "setting": "[5]", "result": "760 +/− 23 min^−1 min^−1"}]}, {"molecule": "B2", "values": [{"measurement": "Km", "setting": "[5]", "result": "160 +/− 30 μM μM"}, {"measurement": "kcat", "setting": "[5]", "result": "770 +/− 70 min^−1 min^−1"}]}, {"molecule": "B3", "values": [{"measurement": "Km", "setting": "[5]", "result": "145 +/− 13 μM μM"}, {"measurement": "kcat", "setting": "[5]", "result": "795 +/− 24 min^−1 min^−1"}]}]}
